Assay results from PubChem BioAssay AID588680 (Southern Research Specialized Biocontainment Screening …, 2011).
Calls of active or inactive are those of the source.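 The calls were made as follows: active = inhibition of 30% or more at any tested concentration; inactive = the rest.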

The compounds below were run against M1-family alanyl aminopeptidase (PfM1AAP), Plasmodium falciparum 3D7 (assay: malaria M1 alanyl aminopeptidase inhibitors – biochemical, QFRET, H-Leu-NHMec substrate, selectivity assay for PfM18AAP inhibitor project, dose response (AID 588680)). Settings: recombinant PfM1AAP, H-Leu-NHMec fluorogenic cleavage.

| Structure (SMILES) | IC50 |
| --- | --- |
| Oc1ccc(CCNc2cncc3ccccc23)cc1O | 35.7 µM |
| CCC(C)c1ccc(N)c(O)c1 (stereo not drawn) | 42.2 µM |
| Cc1c(-c2ccccc2)[nH]c(-c2ccc(O)c(O)c2)[n+]1O | 54.3 µM |
| O=C1c2ccc3c4c(ccc(c24)C(=O)N1O)CC3 | 76.7 µM |
| Oc1ccc(CCNc2cccc3ccccc23)cc1O | 29.9 µM |
| CC(C)(C)C(=O)OCc1nc(-c2ccc(O)c(O)c2)cs1 | 41.2 µM |
| Oc1ccc(CCN2CCc3ccccc3C2)cc1O | 77 µM |
| O=S1(=O)c2ccccc2-c2cc(-c3nc(-c4ccc(O)c(O)c4)[nH]c3-c3ccccc3)ccc21 | 39.9 µM |
| Cc1ccc(-c2nc(-c3ccc(O)c(O)c3)cs2)cc1 | 37.1 µM |
| O=C1OCCN1CCc1nc(-c2ccc(O)c(O)c2)cs1 | 37.7 µM |
| Nc1cc(C(=O)c2ccccc2)ccc1O | 40.3 µM |
| CCOc1cccc(-c2nc(-c3ccc(O)c(O)c3)cs2)c1 | 40 µM |
| Oc1ccc(CCNc2c3c(nc4ccccc24)CCCC3)cc1O | 35 µM |
| Oc1ccc(CCNc2ccc3ccccc3c2)cc1O | 34.6 µM |
| O=c1cc(CN2CCN(Cc3ccccc3)CC2)c2ccc(O)c(O)c2o1 | 90.5 µM |
| Cc1nc(NCCc2ccc(O)c(O)c2)c2c3c(sc2n1)CCC3 | 40 µM |
| CN(CCc1ccc(O)c(O)c1)c1ccnc2ccccc12 | 19.7 µM |
| Oc1ccc(-c2csc(Cc3cc4ccccc4[nH]3)n2)cc1O | 19.9 µM |
| O=c1ccc2cc(O)c(O)cc2o1 | 48.2 µM |
| Oc1ccc(CCNC(c2ccccc2)c2ccccc2)cc1O | 55.1 µM |
| CN(CCc1ccc(O)c(O)c1)c1ccncc1 | 45.2 µM |

Same assay, conditions: recombinant PfM1AAP, H-Leu-NHMec fluorogenic cleavage; at 50 µM (top of the series)

| Structure (SMILES) | inhibition |
| --- | --- |
| O=C(O)CCCCNc1c2ccccc2nc2ccccc12 | inactive |
| O=C(O)CCCNc1c2ccccc2nc2ccccc12 | inactive |

Same assay, conditions: recombinant PfM1AAP, H-Leu-NHMec fluorogenic cleavage; at 100 µM (top of the series)

| Structure (SMILES) | inhibition |
| --- | --- |
| COc1ccc(CCNC2CCN(C)CC2)cc1OC | inactive |
| O=C(c1ccco1)N1CCN(Cc2cc(=O)c(O)c[nH]2)CC1 | inactive |
| COc1ccc(-c2csc(-c3ccccc3)n2)cc1OC | inactive |
| COc1ccc(CCCNc2c3ccccc3nc3ccccc23)cc1OC | inactive |
| COc1ccc(CCN(C)c2c3ccccc3nc3ccccc23)cc1OC | inactive |
| COc1ccc(CCN2CCc3ccccc3C2)cc1OC | inactive |
| COc1ccc(CCN(C)CCc2ccccc2)cc1OC | inactive |
| COc1ccc(CCNc2ccc3ccccc3c2)cc1OC | inactive |
| COc1ccc(CCNC2CCN(Cc3ccccc3)CC2)cc1OC | inactive |
| COc1ccc(CCNc2c3c(nc4ccccc24)CCCC3)cc1OC | inactive |
| NCCNc1c2ccccc2nc2ccccc12 | inactive |
| COc1ccc(CCNc2ccnc3ccccc23)cc1OC | inactive |
| COc1ccc(CCN(C)c2ccncc2)cc1OC | inactive |
| COc1ccc(CCNc2cccc3ccccc23)cc1OC | inactive |
| O=c1ccn(CCNc2c3ccccc3nc3ccccc23)cc1OCc1ccccc1 | inactive |
| O=C(c1ccco1)N1CCN(Cc2cc(=O)c(O)co2)CC1 | inactive |
| COc1cccc(CCNc2c3ccccc3nc3ccccc23)c1 | inactive |
| COc1ccc(CCNc2c3ccccc3nc3ccccc23)cc1 | inactive |

| Structure (SMILES) | inhibition |
| --- | --- |
| COc1ccc(CC(=O)O)cc1OC | inactive |
| COc1ccc(-c2nc(-c3ccccc3)c(-c3ccccc3)[nH]2)cc1OC | inactive |
| Cc1c(OCc2ccccc2)c(=O)ccn1CCNc1c2ccccc2nc2ccccc12 | inactive |
| Cc1c(O)c(=O)ccn1CCNc1c2ccccc2nc2ccccc12 | inactive |
| CCC(C)C(=O)Nc1ccccc1O (stereo not drawn) | inactive |
| COc1ccc(CCN2CCN(C)CC2)cc1OC | inactive |
| COc1ccc(CCN(C)c2ccnc3ccccc23)cc1OC | inactive |
| Oc1ccc(CCNc2c3ccccc3nc3ccccc23)cc1 | inactive |
| COc1ccc(CCNc2c3ccccc3nc3ccccc23)cc1OC | inactive |
| O=c1cc(CO)oc(CN2CCCCC2)c1O | inactive |
| COc1ccc(CCC(=O)O)cc1OC | inactive |
| COc1ccc(CNc2c3ccccc3nc3ccccc23)cc1OC | inactive |
| COc1ccc(CCNc2ccncc2)cc1OC | inactive |
| Oc1ccc(CNc2c3ccccc3nc3ccccc23)cc1O | inactive |
| CCC(C)C(=O)Nc1ccccc1N (stereo not drawn) | inactive |
| COc1ccc(-c2csc(-c3ccccc3OC)n2)cc1OC | inactive |
| COc1cccc(-c2nc(-c3ccc(OC)c(OC)c3)cs2)c1 | inactive |
